Assay results: ChEMBL document CHEMBL1152826, “Fatty acid synthesis is essential for survival of Cryptococcus neoformans and a potential fungicidal target” (2007)
The source made the active and inactive calls. The rule behind the calls is not given here.

How the values were obtained:
Cryptococcus neoformans [1] = experiment: Antifungal activity against Cryptococcus neoformans H99 expressing PCTR4-2/FAS2 assessed as logarithmic reduction in viable cells at 8 ug/ml in presence of bathocuproinedisulfonic acid; type: functional
Cryptococcus neoformans [2] = experiment: Fungicidal activity against Cryptococcus neoformans H99 expressing PCTR4-2/FAS2 after 72 hrs in presence of CuSO4; type: functional, organism-based
Cryptococcus neoformans [3] = experiment: Antifungal activity against Cryptococcus neoformans H99 expressing PCTR4-2/FAS1 assessed as logarithmic reduction in viable cells at 8 ug/ml in presence of bathocuproinedisulfonic acid; type: functional
Cryptococcus neoformans [4] = experiment: Antifungal activity against Cryptococcus neoformans H99 expressing PCTR4-2/FAS1 assessed as reduction in viable cells at 8 ug/ml after 72 hrs in presence of CuSO4 relative to CuSO4 alone; type: functional

For `OC(Cn1cncn1)(Cn1cncn1)c1ccc(F)cc1F` [FLUCONAZOLE], the Activity (Cryptococcus neoformans [1]) was 0.5, the Activity (Cryptococcus neoformans [2]) was “Active” and the Activity (Cryptococcus neoformans [3]) was 0.5. The “fold change (FC)” value (Cryptococcus neoformans [4]) was 100.
